From patent US10947225B2, “Phosphotidylinositol 3-kinase inhibitors” (Emory University, priority 2016, dated 2021) come the findings set out here.

Where two headings read alike, the source gives them in different places.

Holding throughout (assay type): biochemical
One test addresses T1, PI3Kα (Homo sapiens, UniProt P42336).
T1 construct: purchased Promega V1721
The test is described as follows: Ki for PI3Kα (Promega ADP-Glo Lipid Kinase System). The text has this: The Promega V1721 ADP-Glo Lipid Kinase System was used as per the Promega technical manual. The analysis was done in triplicate on three 96-well plates. The plates were read and the data were processed with GraphPad Prism 7.0.

The next test addresses p120gamma (Homo sapiens, UniProt P48736). The test is described as follows: PI3K kinase assay (ADP-Glo), p120gamma. The following applies: final ATP 25 μM. The protocol:
(§1) Summary of PI3K Kinase Assay
(§2) 1. Prepare 1.25× enzyme/substrate: mix equal volume of 2.5× enzyme (in 2.5× reaction buffer) and 2.5× substrate (final 0.05 mg/ml) (in 2.5× lipid dilution buffer);
(§3) 2. Add 4 μl of 1.25× enzyme/substrate mixture to 384-well low volume white plate;
(§4) 3. Add 0.1 μl of increasing concentrations of compound diluted in DMSO;
(§5) 4. Incubate at r.t. for 30 min;
(§6) 5. Dispense 1 μl of 250 μM ATP diluted in ddH2O. The final ATP was 25 μM;
(§7) 6. Incubate at r.t. for 1 h;
(§8) 7. Add 5 μl of ADP-Glo with 10 mM MgCl2;
(§9) 8. Incubate at r.t. for 40 min;
(§10) 9. Add 10 μl of kinase detection buffer;
(§11) 10. Incubated at r.t. for 30 min; and
(§12) 11. Read luminescence signal using Envision multilabel plate reader.
(§13) The effect of compound on kinase activity is expressed as % of control and calculated as the following equation: % of Control=(Lum compound−Lum blank)/(Lum vehicle control−Lum blank)×100 • * blank is the substrate only without enzyme, which is the background signal control.
(§14) The experiment was repeated twice on different days at triplicates per sample.

For the next test, the target named is p110delta (Homo sapiens, UniProt O00329). The test is described as follows: PI3K kinase assay (ADP-Glo), p110delta. As to conditions: final ATP 25 μM. The protocol:
as §1, §2, §3, §4, §5, §6, §7, §8, §9, §10, §11, §12, §13, §14

In another test the target is p110beta (Homo sapiens, UniProt P42338). In words: PI3K kinase assay (ADP-Glo), p110beta. The following applies: final ATP 25 μM. The procedure:
as §1, §2, §3, §4, §5, §6, §7, §8, §9, §10, §11, §12, §13, §14

The target of a further test is p110alpha (Homo sapiens, UniProt P42336). The test is described as follows: PI3K kinase assay (ADP-Glo), p110alpha. The following applies: final ATP 25 μM. The protocol: as §1
Enzyme optimization: After optimization, the following concentrations of Enzyme are used to compound testing: P110alpha 1 μg/ml,
as §2, §3, §4, §5, §6, §7, §8, §9, §10, §11, §12, §13, §14

[1] abbreviates: Exp. 1, read-out: IC50 p120gamma Exp. 1.
The mark [2] stands for this setting: Exp. 2, read-out: IC50 p120gamma Exp. 2.
Where [3] appears, read: Exp. 1, read-out: IC50 p110delta Exp. 1.
The mark [4] stands for this setting: Exp. 2, read-out: IC50 p110delta Exp. 2.
[5] abbreviates: Exp. 1, read-out: IC50 p110beta Exp. 1.
Setting [6] is: Exp. 2, read-out: IC50 p110beta Exp. 2.
The mark [7] stands for this setting: Exp. 1, read-out: IC50 p110alpha Exp. 1.
The mark [8] stands for this setting: Exp. 2, read-out: IC50 p110alpha Exp. 2.

Chain of p120gamma (P48736 whole entry): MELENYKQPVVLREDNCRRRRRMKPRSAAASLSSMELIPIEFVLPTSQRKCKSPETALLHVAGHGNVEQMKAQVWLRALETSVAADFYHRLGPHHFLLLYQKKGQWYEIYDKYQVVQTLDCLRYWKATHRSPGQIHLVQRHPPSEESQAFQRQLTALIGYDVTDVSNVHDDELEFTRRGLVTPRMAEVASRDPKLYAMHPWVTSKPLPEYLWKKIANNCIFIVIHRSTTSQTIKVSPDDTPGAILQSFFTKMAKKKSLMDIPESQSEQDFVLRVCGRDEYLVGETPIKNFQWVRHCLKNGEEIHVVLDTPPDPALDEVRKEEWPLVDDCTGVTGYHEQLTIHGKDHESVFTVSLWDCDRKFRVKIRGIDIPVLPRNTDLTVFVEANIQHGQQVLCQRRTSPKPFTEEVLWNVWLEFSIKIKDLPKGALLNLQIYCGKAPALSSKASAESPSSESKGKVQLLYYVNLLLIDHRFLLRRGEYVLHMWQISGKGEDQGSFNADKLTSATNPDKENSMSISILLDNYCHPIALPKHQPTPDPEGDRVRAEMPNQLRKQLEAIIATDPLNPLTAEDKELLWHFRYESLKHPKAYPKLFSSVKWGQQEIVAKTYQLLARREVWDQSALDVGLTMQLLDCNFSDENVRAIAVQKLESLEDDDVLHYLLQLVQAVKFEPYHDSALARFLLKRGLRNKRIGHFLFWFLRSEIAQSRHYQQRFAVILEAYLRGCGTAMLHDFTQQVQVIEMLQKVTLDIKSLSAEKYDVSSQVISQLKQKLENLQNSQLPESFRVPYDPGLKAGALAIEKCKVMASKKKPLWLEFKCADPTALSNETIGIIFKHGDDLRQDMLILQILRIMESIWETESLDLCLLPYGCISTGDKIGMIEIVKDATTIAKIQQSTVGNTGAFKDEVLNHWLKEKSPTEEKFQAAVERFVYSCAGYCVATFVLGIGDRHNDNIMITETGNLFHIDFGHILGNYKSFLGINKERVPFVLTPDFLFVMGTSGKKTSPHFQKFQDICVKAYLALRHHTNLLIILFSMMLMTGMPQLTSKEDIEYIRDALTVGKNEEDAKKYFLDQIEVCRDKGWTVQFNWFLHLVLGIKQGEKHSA
T1 sequence (P42336 whole entry): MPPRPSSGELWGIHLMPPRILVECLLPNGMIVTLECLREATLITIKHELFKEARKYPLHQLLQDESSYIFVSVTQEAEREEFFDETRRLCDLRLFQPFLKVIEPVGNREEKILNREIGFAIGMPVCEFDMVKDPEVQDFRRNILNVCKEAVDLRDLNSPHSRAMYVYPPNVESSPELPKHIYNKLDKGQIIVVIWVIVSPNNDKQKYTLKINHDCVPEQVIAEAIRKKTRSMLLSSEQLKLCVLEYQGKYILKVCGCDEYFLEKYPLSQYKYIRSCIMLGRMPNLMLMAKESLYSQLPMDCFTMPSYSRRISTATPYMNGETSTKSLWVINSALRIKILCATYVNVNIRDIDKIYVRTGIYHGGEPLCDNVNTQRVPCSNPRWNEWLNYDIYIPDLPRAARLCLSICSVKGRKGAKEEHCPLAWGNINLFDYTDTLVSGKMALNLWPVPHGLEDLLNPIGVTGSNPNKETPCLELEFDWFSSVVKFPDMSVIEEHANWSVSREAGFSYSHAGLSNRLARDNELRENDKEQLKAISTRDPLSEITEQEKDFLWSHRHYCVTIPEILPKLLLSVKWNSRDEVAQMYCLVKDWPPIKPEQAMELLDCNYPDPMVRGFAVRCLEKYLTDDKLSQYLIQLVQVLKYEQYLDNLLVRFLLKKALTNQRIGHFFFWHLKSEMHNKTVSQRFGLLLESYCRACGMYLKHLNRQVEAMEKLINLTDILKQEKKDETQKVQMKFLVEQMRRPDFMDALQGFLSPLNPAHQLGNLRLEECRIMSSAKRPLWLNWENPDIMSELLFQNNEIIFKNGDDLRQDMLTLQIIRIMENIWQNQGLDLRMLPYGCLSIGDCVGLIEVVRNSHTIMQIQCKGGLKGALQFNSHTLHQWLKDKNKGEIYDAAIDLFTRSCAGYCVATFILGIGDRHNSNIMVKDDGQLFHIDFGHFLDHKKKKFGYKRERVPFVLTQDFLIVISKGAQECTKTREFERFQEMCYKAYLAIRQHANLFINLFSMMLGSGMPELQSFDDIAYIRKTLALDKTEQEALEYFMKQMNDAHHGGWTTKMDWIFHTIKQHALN
T1 sequence (P27986 whole entry partner): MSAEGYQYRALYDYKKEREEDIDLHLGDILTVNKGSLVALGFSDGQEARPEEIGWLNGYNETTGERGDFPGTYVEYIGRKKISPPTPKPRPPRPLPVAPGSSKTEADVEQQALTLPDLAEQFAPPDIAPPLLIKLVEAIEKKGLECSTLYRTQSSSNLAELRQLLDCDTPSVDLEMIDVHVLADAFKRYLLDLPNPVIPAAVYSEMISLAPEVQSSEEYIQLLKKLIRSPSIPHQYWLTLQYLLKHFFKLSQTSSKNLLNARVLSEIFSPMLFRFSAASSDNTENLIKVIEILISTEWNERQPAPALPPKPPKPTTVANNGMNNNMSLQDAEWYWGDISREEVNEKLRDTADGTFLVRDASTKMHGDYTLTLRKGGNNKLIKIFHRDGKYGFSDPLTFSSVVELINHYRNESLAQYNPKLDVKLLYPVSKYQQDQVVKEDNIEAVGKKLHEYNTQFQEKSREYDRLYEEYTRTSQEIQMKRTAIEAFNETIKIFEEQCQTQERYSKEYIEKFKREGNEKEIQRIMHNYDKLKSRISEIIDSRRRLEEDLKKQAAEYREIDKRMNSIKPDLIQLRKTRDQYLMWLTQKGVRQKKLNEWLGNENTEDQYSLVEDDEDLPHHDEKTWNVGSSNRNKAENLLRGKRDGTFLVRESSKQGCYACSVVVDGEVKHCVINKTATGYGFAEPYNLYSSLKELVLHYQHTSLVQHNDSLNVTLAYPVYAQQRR
Chain of p110alpha (P42336 whole entry): as the sequence (P42336 whole entry) above
Chain of p110alpha (P27986 whole entry partner): as the sequence (P27986 whole entry partner) above
Chain of p110beta (P42338 whole entry): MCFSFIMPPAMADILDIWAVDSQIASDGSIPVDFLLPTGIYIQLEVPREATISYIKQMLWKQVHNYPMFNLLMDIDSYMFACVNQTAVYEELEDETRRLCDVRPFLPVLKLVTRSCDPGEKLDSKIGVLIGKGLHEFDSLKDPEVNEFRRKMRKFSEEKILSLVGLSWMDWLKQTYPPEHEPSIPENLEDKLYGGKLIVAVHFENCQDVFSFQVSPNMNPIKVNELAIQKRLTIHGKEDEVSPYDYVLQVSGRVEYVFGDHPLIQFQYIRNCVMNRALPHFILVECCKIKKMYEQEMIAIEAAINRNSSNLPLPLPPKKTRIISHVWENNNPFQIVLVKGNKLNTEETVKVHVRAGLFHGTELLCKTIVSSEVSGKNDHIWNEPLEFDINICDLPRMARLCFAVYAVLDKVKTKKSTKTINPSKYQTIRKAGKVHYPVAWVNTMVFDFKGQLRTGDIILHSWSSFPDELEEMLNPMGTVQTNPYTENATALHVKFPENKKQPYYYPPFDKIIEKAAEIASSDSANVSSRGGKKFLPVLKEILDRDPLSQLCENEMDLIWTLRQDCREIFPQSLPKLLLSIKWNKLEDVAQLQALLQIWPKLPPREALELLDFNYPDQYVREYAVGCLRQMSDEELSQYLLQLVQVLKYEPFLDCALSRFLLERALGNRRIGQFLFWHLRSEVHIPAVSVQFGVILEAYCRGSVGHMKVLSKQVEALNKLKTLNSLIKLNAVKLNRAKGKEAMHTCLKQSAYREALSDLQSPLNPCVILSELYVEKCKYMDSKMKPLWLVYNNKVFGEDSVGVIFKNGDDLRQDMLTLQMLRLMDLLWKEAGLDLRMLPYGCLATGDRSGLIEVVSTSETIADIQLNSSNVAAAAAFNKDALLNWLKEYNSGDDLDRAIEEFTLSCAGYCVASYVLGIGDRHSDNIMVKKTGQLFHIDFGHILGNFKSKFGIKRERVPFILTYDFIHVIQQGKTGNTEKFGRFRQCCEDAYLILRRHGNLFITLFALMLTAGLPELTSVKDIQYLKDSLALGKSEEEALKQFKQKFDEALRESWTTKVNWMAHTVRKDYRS
Chain of p110beta (P27986 whole entry partner): as the sequence (P27986 whole entry partner) above

`COc1ncc(-c2cnc3ccc(-c4cncc(NS(=O)(=O)c5ccccc5)c4)cn23)cn1` [drawing 17] showed a Ki at PI3Kα of 70 nM.

On to `COc1ncc(-c2cnc3ccc(-c4cncc(NS(=O)(=O)c5ccccc5)c4)cn23)cn1` [TK2-67p3-36 (6b), N-(5-(3-(2-methoxypyrimidin-5-yl)imidazo[1,2-a]pyridin-6-yl)pyridin-3-yl)benzenesulfonamide], for which the IC50 on p120gamma (setting [1]) stood at 14.9 nM; at p120gamma (setting [2]) it was 27.7 nM; on p110delta (setting [3]) it was 33.5 nM; at p110delta (setting [4]), 27.7 nM; at p110beta (setting [5]), 167 nM; at p110beta (setting [6]) it was 187 nM. The IC50 on p110alpha (setting [7]) was 11.7 nM; at p110alpha (setting [8]) it was 12.7 nM.

With `Nc1ccc(-c2cccc3c(=O)cc(N4CCOCC4)oc23)cc1` [PI 828, reference compound], the IC50 on p120gamma (setting [1]) amounted to 1920 nM; on p120gamma (setting [2]) it was 2140 nM; on p110delta (setting [3]) it was 308 nM; on p110delta (setting [4]), 203 nM; at p110beta (setting [5]) it was 244 nM; at p110beta (setting [6]) it was 242 nM. Besides, the IC50 at p110alpha (setting [7]) turned out to be 351 nM; on p110alpha (setting [8]), 349 nM.

`O=S(=O)(Nc1cncc(-c2ccc3ncc(-c4cnc5ccnn5c4)n3c2)c1)c1ccccc1` [drawing 18] gave a Ki at PI3Kα of 329 nM.

For the compound `CN(C)c1ncc(-c2cnc3ccc(-c4cncc(NS(=O)(=O)c5ccccc5)c4)cn23)cn1` [TK2-71pZD2-86 (6a), N-(5-(3-(2-(dimethylamino)pyrimidin-5-yl)imidazo[1,2-a]pyridin-6-yl)pyridin-3-yl)benzenesulfonamide], the IC50 on p120gamma (setting [1]) was found to be 18.6 nM; at p120gamma (setting [2]) it was 34.2 nM; at p110delta (setting [3]), 33.5 nM; on p110delta (setting [4]), 34.2 nM; on p110beta (setting [5]) it was 190 nM; at p110beta (setting [6]) it was 184 nM. The IC50 at p110alpha (setting [7]) was found to be 20.9 nM; at p110alpha (setting [8]), 33.7 nM.

As to `O=S(=O)(Nc1cncc(-c2ccc3ncc(-c4ncccn4)n3c2)c1)c1ccccc1` [drawing 19], on PI3Kα, the Ki came out at 100 nM.

As to `O=S(=O)(Nc1cncc(-c2ccc3ncc(-c4ncccn4)n3c2)c1)c1ccccc1` [TK2-94p3-47 (6d), N-(5-(3-(pyrimidin-2-yl)imidazo[1,2-a]pyridin-6-yl)pyridin-3-yl)benzenesulfonamide], the IC50 on p120gamma (setting [1]) stood at 7.5 nM; on p120gamma (setting [2]), 8.5 nM; on p110delta (setting [3]) it was 10.8 nM; on p110delta (setting [4]), 8.5 nM; at p110beta (setting [5]), 27.6 nM; at p110beta (setting [6]) it was 44.9 nM. In addition, the results for the IC50 on p110alpha (setting [7]) and on p110alpha (setting [8]) were 8.9 nM and 11.5 nM, respectively.

On PI3Kα, `CN(C)c1ncc(-c2cnc3ccc(-c4cncc(NS(=O)(=O)c5ccccc5)c4)cn23)cn1` [drawing 16] yielded a Ki of 244 nM.

As for `CCc1nc(-c2cnc3ccc(-c4cncc(NS(=O)(=O)c5ccccc5)c4)cn23)no1`, the Ki at PI3Kα was found to be 43 nM.

For `O=S(=O)(Nc1cncc(-c2ccc3ncc(-c4cnc5ccnn5c4)n3c2)c1)c1ccccc1` [TK2-130p3-37 (6c), N-(5-(3-(pyrazolo[1,5-a]pyrimidin-6-yl)imidazo[1,2-a]pyridin-6-yl)pyridin-3-yl)benzenesulfonamide], the IC50 is 50.2 nM at p120gamma (setting [1]); 31 nM at p120gamma (setting [2]); 34.1 nM on p110delta (setting [3]); 31 nM on p110delta (setting [4]); 419 nM at p110beta (setting [5]); 479 nM at p110beta (setting [6]). For the same compound, the IC50 on p110alpha (setting [7]) was 51 nM; on p110alpha (setting [8]) it was 61.3 nM.
